This passage reports remaining binding results from patent US12275731B2, “Azaindole inhibitors of wild-type and mutant forms of LRRK2” (DANA-FARBER CANCER INSTITUTE, INC., priority 2018, dated 2025).

What all share (test): KinomeScan profiling
Assay type in all cases: binding

One assay deals with T1, PKAC-beta (Homo sapiens, UniProt P22694).
T1 construct: purchased KinomeScan® (panel service)
To be noted: read-out: % control. In outline: (§1)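 Test agents were profiled at a single concentration of 1 μM (DMSO vehicle) on a near-complete set of 468 kinases. Signal is reported relative to vehicle (100%) and a fully displacing control (0%).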

The target of a further assay is T2, DYRK2 (Homo sapiens, UniProt Q92630).
T2 sequence (Q92630 1-601): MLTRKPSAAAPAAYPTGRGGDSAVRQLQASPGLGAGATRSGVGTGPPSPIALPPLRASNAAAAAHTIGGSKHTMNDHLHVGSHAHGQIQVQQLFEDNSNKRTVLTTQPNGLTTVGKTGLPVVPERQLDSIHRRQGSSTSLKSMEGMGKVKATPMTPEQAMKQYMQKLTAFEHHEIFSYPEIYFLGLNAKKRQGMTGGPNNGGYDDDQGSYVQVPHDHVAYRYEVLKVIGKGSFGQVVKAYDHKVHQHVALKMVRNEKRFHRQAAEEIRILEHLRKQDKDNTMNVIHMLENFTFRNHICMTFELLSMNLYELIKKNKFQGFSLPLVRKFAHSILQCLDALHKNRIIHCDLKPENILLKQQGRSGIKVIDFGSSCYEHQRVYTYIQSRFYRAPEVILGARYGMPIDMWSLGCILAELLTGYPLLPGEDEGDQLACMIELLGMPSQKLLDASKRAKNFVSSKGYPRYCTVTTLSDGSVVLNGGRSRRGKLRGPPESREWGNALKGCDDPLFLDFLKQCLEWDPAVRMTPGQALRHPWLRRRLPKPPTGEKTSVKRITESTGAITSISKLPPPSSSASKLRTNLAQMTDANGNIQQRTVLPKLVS
The following applies: DYRK2, 1 μM; read-out: % control. Summed up:
as §1

Another assay has as its target CLK1 (Homo sapiens, UniProt P49759). To be noted: CLK1, 1 μM; read-out: % control. In outline:
as §1

For another assay, the target named is FYN (Homo sapiens, UniProt P06241). The following applies: read-out: % control. Summed up:
as §1

The target in the next assay is MET(M1250T) (Homo sapiens, UniProt P08581, M1250T). To be noted: read-out: % control. Summed up:
as §1

The target of a further assay is T3, LZK (Homo sapiens, UniProt O43283).
T3 sequence (O43283 1-966): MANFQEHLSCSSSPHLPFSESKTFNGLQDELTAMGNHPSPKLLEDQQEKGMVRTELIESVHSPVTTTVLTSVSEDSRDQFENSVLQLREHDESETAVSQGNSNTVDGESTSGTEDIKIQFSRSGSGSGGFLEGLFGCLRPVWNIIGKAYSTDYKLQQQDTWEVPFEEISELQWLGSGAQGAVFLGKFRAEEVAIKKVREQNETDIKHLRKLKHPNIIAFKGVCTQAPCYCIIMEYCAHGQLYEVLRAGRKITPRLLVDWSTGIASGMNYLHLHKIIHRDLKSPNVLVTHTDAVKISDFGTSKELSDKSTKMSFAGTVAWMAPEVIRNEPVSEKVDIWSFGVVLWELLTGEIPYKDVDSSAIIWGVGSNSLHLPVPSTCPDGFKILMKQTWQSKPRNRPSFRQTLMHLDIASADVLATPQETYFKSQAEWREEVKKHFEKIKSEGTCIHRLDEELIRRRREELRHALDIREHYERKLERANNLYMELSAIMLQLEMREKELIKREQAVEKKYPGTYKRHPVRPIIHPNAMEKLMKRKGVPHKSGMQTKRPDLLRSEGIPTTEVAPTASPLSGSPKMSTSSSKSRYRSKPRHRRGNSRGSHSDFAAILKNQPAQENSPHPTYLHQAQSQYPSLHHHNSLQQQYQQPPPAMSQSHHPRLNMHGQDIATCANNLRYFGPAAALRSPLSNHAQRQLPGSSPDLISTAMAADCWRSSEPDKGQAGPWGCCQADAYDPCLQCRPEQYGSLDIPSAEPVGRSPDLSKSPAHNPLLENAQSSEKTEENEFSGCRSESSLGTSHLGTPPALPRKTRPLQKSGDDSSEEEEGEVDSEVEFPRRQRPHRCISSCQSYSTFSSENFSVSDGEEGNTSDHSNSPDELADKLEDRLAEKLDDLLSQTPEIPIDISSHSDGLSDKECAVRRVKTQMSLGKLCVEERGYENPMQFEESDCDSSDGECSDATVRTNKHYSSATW
To be noted: read-out: % control. Summed up:
as §1

Assay [1] concerns the target T4, ABL1(F317L)-phosphorylated (Homo sapiens, UniProt P00519, F317L).
T4 construct: purchased KinomeScan®
To be noted: read-out: % control. In outline: as §1

Another assay has as its target PRKCD (Homo sapiens, UniProt Q05655). The following applies: read-out: % control. Summed up:
as §1

Sequence of MET(M1250T) (P08581 25-1390 M1250T): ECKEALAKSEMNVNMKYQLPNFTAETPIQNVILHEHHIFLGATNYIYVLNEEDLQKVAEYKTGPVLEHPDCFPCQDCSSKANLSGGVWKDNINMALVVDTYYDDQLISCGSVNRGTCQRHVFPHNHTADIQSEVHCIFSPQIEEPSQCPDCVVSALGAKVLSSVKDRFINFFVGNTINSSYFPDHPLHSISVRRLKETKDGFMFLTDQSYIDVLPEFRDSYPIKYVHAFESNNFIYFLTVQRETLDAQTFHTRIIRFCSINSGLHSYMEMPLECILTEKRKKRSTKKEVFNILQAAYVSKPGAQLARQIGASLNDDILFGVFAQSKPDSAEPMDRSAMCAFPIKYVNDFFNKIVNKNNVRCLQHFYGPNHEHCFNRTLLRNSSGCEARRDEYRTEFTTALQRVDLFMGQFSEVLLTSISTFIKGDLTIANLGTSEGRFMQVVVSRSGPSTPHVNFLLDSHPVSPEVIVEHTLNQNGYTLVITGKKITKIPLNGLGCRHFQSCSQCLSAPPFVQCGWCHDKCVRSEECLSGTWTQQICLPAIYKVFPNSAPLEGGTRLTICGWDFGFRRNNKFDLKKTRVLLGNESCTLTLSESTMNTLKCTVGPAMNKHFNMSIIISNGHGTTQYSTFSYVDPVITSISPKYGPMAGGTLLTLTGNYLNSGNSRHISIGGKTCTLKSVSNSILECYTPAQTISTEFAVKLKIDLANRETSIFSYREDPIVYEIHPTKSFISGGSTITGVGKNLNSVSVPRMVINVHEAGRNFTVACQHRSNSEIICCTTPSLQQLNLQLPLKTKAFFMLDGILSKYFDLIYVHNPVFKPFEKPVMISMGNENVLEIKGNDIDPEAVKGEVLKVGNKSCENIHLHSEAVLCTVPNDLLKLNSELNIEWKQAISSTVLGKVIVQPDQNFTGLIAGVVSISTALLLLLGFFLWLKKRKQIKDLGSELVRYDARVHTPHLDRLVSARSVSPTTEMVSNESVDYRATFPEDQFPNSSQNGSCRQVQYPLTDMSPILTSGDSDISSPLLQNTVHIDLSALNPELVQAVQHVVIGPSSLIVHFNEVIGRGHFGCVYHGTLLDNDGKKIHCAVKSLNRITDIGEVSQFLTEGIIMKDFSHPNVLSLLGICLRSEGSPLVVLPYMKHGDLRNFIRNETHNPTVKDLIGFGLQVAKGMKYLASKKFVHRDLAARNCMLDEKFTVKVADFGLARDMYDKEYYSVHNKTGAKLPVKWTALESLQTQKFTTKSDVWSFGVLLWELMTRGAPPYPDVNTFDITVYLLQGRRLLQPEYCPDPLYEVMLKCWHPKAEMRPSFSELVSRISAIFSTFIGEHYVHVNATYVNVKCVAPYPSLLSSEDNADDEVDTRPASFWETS
Sequence of CLK1 (P49759 whole entry): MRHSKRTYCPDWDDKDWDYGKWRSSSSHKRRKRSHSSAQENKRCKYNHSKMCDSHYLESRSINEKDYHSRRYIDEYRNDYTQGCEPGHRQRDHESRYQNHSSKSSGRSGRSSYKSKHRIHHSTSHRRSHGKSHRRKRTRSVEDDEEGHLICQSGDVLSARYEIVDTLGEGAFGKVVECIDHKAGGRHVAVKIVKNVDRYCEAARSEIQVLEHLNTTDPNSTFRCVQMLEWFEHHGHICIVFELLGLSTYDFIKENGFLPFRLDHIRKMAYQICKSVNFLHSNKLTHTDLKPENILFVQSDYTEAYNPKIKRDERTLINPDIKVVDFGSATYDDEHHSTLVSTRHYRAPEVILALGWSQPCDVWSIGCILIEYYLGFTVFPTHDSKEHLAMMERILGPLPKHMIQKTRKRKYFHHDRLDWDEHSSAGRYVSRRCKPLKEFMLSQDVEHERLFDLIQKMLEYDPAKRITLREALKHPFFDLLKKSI
Sequence of FYN (P06241 whole entry): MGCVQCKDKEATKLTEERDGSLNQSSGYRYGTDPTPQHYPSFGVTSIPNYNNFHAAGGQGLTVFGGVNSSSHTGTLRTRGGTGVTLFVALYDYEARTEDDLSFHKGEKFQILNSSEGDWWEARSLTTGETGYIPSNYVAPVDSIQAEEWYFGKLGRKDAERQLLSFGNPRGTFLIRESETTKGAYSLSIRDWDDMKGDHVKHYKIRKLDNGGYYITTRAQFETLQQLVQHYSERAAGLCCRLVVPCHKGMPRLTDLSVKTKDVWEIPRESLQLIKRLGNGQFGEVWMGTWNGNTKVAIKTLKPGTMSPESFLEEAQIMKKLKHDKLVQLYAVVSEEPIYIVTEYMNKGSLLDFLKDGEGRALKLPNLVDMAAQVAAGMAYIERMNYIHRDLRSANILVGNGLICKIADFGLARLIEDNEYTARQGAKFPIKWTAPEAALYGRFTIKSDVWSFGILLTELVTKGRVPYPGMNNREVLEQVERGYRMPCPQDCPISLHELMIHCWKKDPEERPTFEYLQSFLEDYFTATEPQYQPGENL
Sequence of PRKCD (Q05655 whole entry): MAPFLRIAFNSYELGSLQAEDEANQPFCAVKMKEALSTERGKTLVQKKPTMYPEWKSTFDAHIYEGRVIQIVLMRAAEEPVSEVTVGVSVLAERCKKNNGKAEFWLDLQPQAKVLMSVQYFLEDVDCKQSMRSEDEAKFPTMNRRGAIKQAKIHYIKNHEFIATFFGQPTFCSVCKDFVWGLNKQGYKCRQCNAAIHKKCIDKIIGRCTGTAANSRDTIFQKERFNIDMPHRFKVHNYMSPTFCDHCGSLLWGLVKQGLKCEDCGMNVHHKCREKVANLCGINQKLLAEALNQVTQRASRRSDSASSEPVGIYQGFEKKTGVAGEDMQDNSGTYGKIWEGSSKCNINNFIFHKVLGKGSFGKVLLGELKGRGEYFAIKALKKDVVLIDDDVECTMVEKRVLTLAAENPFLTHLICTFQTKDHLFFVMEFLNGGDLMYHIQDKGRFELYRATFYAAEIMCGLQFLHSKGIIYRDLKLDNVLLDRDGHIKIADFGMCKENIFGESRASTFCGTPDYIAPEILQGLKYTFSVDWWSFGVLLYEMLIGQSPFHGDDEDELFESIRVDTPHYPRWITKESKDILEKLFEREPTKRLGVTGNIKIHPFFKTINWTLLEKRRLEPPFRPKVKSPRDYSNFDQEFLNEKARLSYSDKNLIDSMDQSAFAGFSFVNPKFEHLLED
T4 sequence (P00519 whole entry F317L): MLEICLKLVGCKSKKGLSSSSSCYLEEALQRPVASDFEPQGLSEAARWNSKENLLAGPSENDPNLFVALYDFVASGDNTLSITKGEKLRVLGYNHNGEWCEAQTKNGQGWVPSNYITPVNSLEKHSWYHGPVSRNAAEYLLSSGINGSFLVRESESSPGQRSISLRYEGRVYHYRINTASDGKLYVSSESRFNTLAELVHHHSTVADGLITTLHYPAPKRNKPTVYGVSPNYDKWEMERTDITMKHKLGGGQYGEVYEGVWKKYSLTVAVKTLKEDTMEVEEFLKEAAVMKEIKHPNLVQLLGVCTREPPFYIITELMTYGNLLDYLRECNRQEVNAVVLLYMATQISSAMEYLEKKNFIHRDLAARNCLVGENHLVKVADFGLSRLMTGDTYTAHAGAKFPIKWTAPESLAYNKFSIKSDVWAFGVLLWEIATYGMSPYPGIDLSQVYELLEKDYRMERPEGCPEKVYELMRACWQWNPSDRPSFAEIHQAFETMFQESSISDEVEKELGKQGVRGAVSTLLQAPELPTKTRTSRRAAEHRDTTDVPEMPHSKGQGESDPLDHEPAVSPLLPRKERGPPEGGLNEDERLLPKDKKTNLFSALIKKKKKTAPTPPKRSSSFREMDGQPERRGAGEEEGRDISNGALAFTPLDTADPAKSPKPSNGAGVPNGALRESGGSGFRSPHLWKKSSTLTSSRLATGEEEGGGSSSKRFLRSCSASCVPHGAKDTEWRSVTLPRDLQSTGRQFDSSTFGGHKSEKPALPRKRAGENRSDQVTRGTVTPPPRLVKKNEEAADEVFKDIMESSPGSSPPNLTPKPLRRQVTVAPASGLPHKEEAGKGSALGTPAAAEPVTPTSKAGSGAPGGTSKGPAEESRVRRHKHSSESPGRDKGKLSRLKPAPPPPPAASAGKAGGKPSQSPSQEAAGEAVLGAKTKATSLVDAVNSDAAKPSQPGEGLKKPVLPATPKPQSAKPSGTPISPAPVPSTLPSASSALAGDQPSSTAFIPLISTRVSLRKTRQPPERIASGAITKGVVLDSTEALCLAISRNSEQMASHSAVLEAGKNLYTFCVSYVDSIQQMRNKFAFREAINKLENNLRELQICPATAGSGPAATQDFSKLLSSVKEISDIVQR

Regarding `CNc1c(-c2ccc(C(=O)N3CCC(N4CCOCC4)CC3)cc2)cnc2[nH]cc(Cl)c12` [Compound 96, (4-(3-chloro-4-(methylamino)-1H-pyrrolo[2,3-b]pyridin-5-yl)phenyl)(4-morpholinopiperidin-1-yl)methanone], the remaining binding at 1 µM on PKAC-beta worked out at 100%; at DYRK2 it was 12%; at CLK1, 33%; at FYN, 96%; on MET(M1250T), 78%; at LZK, 89%. Further, the remaining binding at 1 µM was 81% in assay [1] and 94% on PRKCD.
For `O=C(c1ccc(-c2cnc3[nH]cc(Cl)c3c2NC2CCCC2)cc1)N1CCC(N2CCOCC2)CC1` [Compound 101, (4-(3-chloro-4-(cyclopentylamino)-1H-pyrrolo[2,3-b]pyridin-5-yl)phenyl)(4-morpholinopiperidin-1-yl)methanone], the remaining binding at 1 µM was 90% on PKAC-beta; 100% at DYRK2; 59% at CLK1; 87% at FYN; 23% at MET(M1250T); 76% at LZK. In addition, the remaining binding at 1 µM in assay [1] is 43%; at PRKCD it was 88%.
Turning to `CNc1c(-c2cnn([C@H]3CCN(C(C)=O)C[C@@H]3F)c2)cnc2[nH]cc(Cl)c12` [Compound 77, 1-((3S,4S)-4-(4-(3-chloro-4-(methylamino)-1H-pyrrolo[2,3-b]pyridin-5-yl)-1H-pyrazol-1-yl)-3-fluoropiperidin-1-yl)ethan-1-one], the remaining binding at 1 µM is 100% on PKAC-beta; 49% at DYRK2; 84% at CLK1; 94% at FYN; 49% on MET(M1250T); 61% on LZK. Further, the values for the remaining binding at 1 µM (in assay [1]; on PRKCD) were 91% and 100%, respectively.
